{"source": "ChEMBL document CHEMBL1201862", "about": "“PubChem BioAssay data set” (2004)", "key": {"[1]": {"assay": "COV362 cell viability loss – plate reader, dry powder, SA12, cytotoxicity control for PAX8 inhibitor project, dose response (AID 743144)", "format": "functional, cell-based"}, "[2]": {"assay": "toxicity toward immortalized ovarian surface epithelium – cell-based, plate reader, dry powder samples, cytotoxicity control for PAX8 inhibitor project, dose response (AID 743045)", "format": "functional"}, "[3]": {"assay": "OVCAR-3 cell viability loss – plate reader, dry powder samples, PAX8 inhibitor project, dose response (AID 743044)", "format": "functional, cell-based"}, "[4]": {"assay": "IGROV1 cell killing – plate reader, dry powder samples, PAX8 inhibitor project, dose response (AID 743043)", "format": "functional, cell-based", "conditions": "IGROV-1"}, "[5]": {"assay": "OVCAR4 cell viability loss – plate reader, dry powder, SA11, cytotoxicity control for PAX8 inhibitor project, dose response (AID 743150)", "format": "functional, cell-based", "conditions": "OVCAR-4"}, "[6]": {"assay": "COV434 cell viability loss – plate reader, dry powder, SA7, cytotoxicity control for PAX8 inhibitor project, dose response (AID 743145)", "format": "functional, cell-based"}, "[7]": {"assay": "OV-90 cell viability loss – plate reader, dry powder, SA8, PAX8 inhibitor project, dose response (AID 743149)", "format": "functional, cell-based"}, "[8]": {"assay": "PAX8-dependent cell viability loss – plate reader, dry powder, dose response (AID 743049)", "format": "functional, cell-based"}, "[9]": {"assay": "Counterscreen for […] of the human trace amine associated receptor 1 (TAAR1): Fluorescence-based cell-based high throughput dose response assay to identify nonselective Ga16 agonists.", "format": "functional"}, "[10]": {"target": "T1, Trace amine-associated receptor 1 (Homo sapiens, UniProt Q96RJ0)", "T1 sequence (Q96RJ0 whole entry)": "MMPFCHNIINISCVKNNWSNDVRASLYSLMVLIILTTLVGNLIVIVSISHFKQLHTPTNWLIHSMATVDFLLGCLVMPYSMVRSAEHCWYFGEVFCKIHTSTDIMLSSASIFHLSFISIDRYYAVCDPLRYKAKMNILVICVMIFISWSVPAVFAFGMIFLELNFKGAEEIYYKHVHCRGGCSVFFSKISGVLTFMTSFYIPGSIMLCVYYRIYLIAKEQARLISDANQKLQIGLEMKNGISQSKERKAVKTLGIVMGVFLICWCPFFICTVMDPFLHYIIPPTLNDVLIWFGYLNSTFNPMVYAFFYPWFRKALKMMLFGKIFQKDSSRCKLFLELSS", "assay": "Fluorescence-based cell-based high throughput dose response assay to identify antagonists of the human trace amine associated receptor 1 (TAAR1).", "format": "functional"}, "[11]": {"assay": "Counterscreen for antagonists of the human trace amine associated receptor 1 (hTAAR1): Fluorescence-based cell-based high throughput dose response assay to identify nonselective Ga16 antagonists.", "format": "functional"}, "[12]": {"target": "T1, Trace amine-associated receptor 1", "assay": "Counterscreen for antagonists of the human trace amine associated receptor 1 (hTAAR1): Fluorescence-based cell-based high throughput dose response assay to identify TAAR1 Agonists.", "format": "functional"}, "[13]": {"assay": "A549 cell cytotoxicity, dose response, cytotoxicity control, plate reader, cherry-pick, antagonist series (AID 743412)", "format": "functional, cell-based"}, "[14]": {"assay": "inhibition of bursicon-driven LGR2 cAMP signaling – cell-based, HEK293, CRE-luciferase reporter, cherry pick, dose response (AID 743342)", "format": "functional"}, "[15]": {"assay": "blockade of melanocortin 4 receptor signaling – cell-based, plate reader, cherry pick, counter-screen for LGR2 antagonist project, dose response (AID 743444);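 note: transfected HEK 293 cells stimulated with alpha-MSH peptide; potency of inhibitors of the alpha-MSH evoked signal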", "format": "functional"}, "[16]": {"assay": "viability loss in HEK293 cells – cell-based, plate reader, cherry-picked samples, cytotoxicity control, dose response (AID 743446)", "format": "functional"}, "[17]": {"target": "Endoplasmic reticulum aminopeptidase 1 (Homo sapiens, UniProt Q9NZ08)", "sequence (Q9NZ08 whole entry)": "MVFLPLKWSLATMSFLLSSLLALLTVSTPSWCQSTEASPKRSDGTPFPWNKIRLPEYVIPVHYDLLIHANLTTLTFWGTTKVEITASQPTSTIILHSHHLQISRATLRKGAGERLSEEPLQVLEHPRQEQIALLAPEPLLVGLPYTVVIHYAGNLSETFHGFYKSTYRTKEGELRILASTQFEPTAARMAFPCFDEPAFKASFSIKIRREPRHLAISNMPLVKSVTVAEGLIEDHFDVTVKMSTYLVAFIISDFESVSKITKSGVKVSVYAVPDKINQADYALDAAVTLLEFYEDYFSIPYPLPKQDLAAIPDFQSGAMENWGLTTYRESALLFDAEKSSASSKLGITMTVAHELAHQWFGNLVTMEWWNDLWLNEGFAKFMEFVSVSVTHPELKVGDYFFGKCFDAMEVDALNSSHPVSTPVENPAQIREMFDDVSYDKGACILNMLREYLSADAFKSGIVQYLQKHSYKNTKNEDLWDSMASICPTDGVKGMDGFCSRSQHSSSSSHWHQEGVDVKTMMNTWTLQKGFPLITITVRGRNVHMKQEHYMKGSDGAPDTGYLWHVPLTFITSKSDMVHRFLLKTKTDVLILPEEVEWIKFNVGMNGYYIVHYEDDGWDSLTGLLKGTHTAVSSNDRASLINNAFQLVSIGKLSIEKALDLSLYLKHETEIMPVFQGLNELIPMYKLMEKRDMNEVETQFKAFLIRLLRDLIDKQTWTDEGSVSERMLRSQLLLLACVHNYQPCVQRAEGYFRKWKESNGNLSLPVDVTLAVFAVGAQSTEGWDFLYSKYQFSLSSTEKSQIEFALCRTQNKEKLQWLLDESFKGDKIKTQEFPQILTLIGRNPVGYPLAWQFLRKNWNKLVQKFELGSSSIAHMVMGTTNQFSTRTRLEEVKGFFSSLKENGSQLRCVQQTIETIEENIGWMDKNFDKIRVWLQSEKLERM", "assay": "inhibition of human ERAP1 enzyme activity – biochemical, cherry-pick, set 2, plate reader, dose response (AID 743314)"}, "[18]": {"target": "T2, High affinity choline transporter 1 (Homo sapiens, UniProt Q9GZV3)", "T2 sequence (Q9GZV3 whole entry)": "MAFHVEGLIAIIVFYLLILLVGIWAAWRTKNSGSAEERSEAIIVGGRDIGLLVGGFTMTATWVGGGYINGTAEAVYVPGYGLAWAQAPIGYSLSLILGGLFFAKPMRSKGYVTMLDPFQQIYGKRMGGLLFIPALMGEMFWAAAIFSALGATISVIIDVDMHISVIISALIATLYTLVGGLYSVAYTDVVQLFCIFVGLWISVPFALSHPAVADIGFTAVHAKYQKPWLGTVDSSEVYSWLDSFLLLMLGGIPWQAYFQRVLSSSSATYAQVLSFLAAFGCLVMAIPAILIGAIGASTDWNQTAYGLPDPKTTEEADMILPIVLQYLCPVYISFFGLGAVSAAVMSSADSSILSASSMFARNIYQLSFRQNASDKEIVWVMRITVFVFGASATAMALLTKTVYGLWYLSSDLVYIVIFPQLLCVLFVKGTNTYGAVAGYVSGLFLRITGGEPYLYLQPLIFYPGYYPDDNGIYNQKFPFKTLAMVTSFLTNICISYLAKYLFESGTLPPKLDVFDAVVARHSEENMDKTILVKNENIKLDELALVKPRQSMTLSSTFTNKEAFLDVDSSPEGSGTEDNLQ", "assay": "inhibition of SLC5A7-mediated choline transport – cell-based, HEK-293 hCHT, [3H]-choline uptake, dose response (AID 652177)", "format": "functional"}, "HeLa": {"system": "HeLa", "assay": "viability loss in HeLa cells – cell-based, ATP luminescence, cherry-pick samples, cytotoxicity control, dose response (AID 687004)", "format": "functional", "conditions": "Homo sapiens"}}, "note": "Active and inactive are the calls of the source."}
{"smiles": "O=C(CCCN1C(=O)/C(=C\\c2cccc(Br)c2)SC1=S)Nc1ccccn1", "values": [{"measurement": "AC50", "setting": "[1]", "value": "46.2 µM (active)"}, {"measurement": "AC50", "setting": "[2]", "value": "68.5 µM (active)"}, {"measurement": "AC50", "setting": "[3]", "value": "18.9 µM (active)"}, {"measurement": "AC50", "setting": "[4]", "value": "14.8 µM (active)"}, {"measurement": "AC50", "setting": "[5]", "value": "42.7 µM (active)"}, {"measurement": "AC50", "setting": "[6]", "value": "49.7 µM (active)"}, {"measurement": "AC50", "setting": "[7]", "value": "36.8 µM (active)"}, {"measurement": "AC50", "setting": "[8]", "value": "17.6 µM (active)"}]}
{"smiles": "COC(=O)c1oc2c(c1C)C1(CCC2)SCCS1", "values": [{"measurement": "EC50", "setting": "[9]", "value": "> 29.9 µM (inactive)"}, {"measurement": "IC50", "setting": "[10]", "value": "1.09 µM (active)"}, {"measurement": "IC50", "setting": "[11]", "value": "> 29.9 µM (inactive)"}, {"measurement": "EC50", "setting": "[12]", "value": "> 29.9 µM (inactive)"}]}
{"smiles": "COc1ccc(S(=O)(=O)N(C)C[C@@H]2OCCCC[C@H](C)Oc3ccc(NS(=O)(=O)c4ccc(Cl)cc4)cc3C(=O)N([C@@H](C)CO)C[C@@H]2C)cc1", "values": [{"measurement": "AC50", "setting": "[13]", "value": "5.98 µM (active)"}, {"measurement": "AC50", "setting": "[14]", "value": "3.79 µM (active)"}, {"measurement": "AC50", "setting": "[15]", "value": "4.58 µM (active)"}, {"measurement": "AC50", "setting": "[16]", "value": "28.5 µM (active)"}]}
{"smiles": "CC(C)(C)c1cc(N2CCOCC2)n2ncc(-c3ccccc3)c2n1", "values": [{"measurement": "AC50", "setting": "[17]", "value": "14.2 µM (active)"}]}
{"smiles": "CC12CC(c3ccccc3O1)C(C(=O)OCc1ccccc1)C(=O)N2", "note": "(stereo not given)", "values": [{"measurement": "AC50", "setting": "cells", "value": "0.151 µM (active)"}]}
{"smiles": "COc1ccc(C(=O)NCc2csc(C)n2)cc1OC1CCN(C(C)C)CC1", "values": [{"measurement": "IC50", "setting": "[18]", "value": "6.18 µM (active)"}]}
{"smiles": "C[C@H](CO)N1C[C@H](C)[C@H](CN(C)Cc2ccccc2)Oc2cc(C#Cc3ccccn3)ccc2S1(=O)=O", "values": [{"measurement": "AC50", "setting": "HeLa", "value": "> 52 µM (inactive)"}]}
